Source: PMC10970644, “Molecular Pharmacology of Gelsemium Alkaloids on Inhibitory Receptors” (International Journal of Molecular Sciences, 2024)
Positions count from the first letter of the chain named. Read-outs that look alike come from different tables or passages of the source.

Columns and labels:
α1GlyR F63A = target: T1, α1GlyR F63A (Rattus norvegicus, UniProt P07727, F91A); type: cell-based
T1 construct: expressed in transfected cells; host or cells: HEK293 (ATCC CRL-1573)
T1 sequence (P07727 29-457 F91A): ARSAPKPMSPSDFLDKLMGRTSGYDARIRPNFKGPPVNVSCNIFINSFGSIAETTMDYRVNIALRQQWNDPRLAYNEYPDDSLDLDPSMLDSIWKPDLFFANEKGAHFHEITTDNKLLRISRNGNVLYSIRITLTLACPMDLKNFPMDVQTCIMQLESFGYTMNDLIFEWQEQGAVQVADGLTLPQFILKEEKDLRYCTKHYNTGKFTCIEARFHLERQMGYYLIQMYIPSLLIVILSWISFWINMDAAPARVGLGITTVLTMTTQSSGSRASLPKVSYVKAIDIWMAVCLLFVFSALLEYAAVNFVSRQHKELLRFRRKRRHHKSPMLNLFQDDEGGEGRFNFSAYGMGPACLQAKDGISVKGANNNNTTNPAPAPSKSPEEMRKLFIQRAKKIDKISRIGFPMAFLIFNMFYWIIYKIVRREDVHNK
Procedure: (§1) The cells were transfected with plasmids encoding the following proteins: (i). rat GlyR α (1, 2, 3) subunits alone or combined with rat β subunits (Uniprot Accession Numbers: Q546L7, P22771, P20236, P20781); and (ii). rat GABAAR α1 combined with rat β2 and γ2 subunits (Uniprot Accession Numbers: P62813, P63138, P18508). The EGFP expression was used as a marker of successful protein expression. The transfection was performed using Lipofectamine 2000 (Invitrogen, ThermoFisher, Carlsbad, CA, USA) using the fabricant protocol. The plasmids used to express GlyRs and GABAARs have been previously described. To track the successful expression of GlyR β subunits and the GABAA γ2 or β2 subunit, these proteins were subcloned in the pIRES2-EGFP vector. The transfection ratio to obtain β-containing GlyRs was 1:5 of α:β, while the expression of γ2-containing GABAA receptors was 1:2:5 of α:β:γ2 [14, 15]. Chimeric GlyRs were described in a previous report. Site directed mutagenesis was performed by Charm Gene Science Mutagenex LLC. (Cumming, GA, USA). All the constructs were checked by full-length sequencing (SNPSaurus, Eugene, OR, USA).
(§2) In brief, patch electrodes (3–4 MΩ) were pulled from borosilicate glasses in a PC-100 puller (Narishige, Tokyo, Japan); then, they were filled with an intracellular solution, which contained (in mM) 120 CsCl, 8 EGTA, 10 HEPES (pH 7.4), 4 MgCl2, 0.5 GTP, and 2 ATP. The extracellular solution contained (in mM) 140 NaCl, 5.4 KCl, 2.0 CaCl2, 1.0 MgCl2, 10 HEPES (pH 7.4), and 10 glucose. Whole-cell patch-clamp recordings were performed at −60 mV with an Axoclamp 200B (Molecular Devices, Sunnyvale, CA, USA) or with HEKA EPC-10 (HEKA Elektronik GmbH, Reutlingen, Germany) amplifiers. […] Brief (3–5 s) pulses of agonist together with alkaloids were applied to cells. Stock solutions of the alkaloids were prepared in high purity distilled water. Aliquots of these stock solutions were diluted in reservoirs containing extracellular solution. […] The concentration–response curve parameters for the alkaloid inhibition (IC50, nH, and the maximal current inhibition) were obtained from the fitted curve of normalized concentration–response data points to the equation Iagonist = Imax (agonist)nH/((agonist)nH + (EC50)nH). The IC50 curves are best-fit mean ± SE from pooled data. […] The inhibition constant (Ki) was calculated using the Cheng–Prusoff equation (Ki = IC50/((2 + ([Agonist]/EC50)^nH)^1/nH − 1). The concentration of agonist corresponds to the sub-saturating agonist concentration used to obtain the IC50 for each alkaloid on a given GlyR subtype.

α1GlyR G160E = target: T2, α1GlyR G160E (Rattus norvegicus, UniProt P07727, G188E); type: cell-based
T2 construct: expressed in transfected cells; host or cells: HEK293 (ATCC CRL-1573)
T2 sequence (P07727 29-457 G188E): T1 sequence (P07727 29-457 F91A) with A63F, G160E
Procedure: as §1, §2

Spinal GlyRs = conditions: cited from earlier work
α3 GlyR = target: T3, α3 GlyR (Rattus norvegicus, UniProt P24524); conditions: cited from earlier work
T3 construct: expressed in transfected cells; host or cells: HEK293 (ATCC CRL-1573)
T3 sequence (P24524 34-464): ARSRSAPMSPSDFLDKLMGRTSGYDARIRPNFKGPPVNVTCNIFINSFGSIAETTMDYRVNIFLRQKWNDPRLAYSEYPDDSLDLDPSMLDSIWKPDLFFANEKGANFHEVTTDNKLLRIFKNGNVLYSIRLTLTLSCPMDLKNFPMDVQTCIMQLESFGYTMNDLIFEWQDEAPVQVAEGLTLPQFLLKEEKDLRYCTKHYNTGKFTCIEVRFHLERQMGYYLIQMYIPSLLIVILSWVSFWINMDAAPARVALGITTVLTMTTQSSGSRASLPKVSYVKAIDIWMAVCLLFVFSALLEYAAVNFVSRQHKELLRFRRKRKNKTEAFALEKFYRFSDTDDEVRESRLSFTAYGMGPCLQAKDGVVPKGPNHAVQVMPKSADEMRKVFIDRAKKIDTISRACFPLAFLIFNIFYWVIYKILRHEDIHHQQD

[1] = test system: recombinant and native GABAARs; conditions: cited from earlier work

| SMILES | alkaloid sensitivity of glycine-evoked currents (in words) (α1GlyR F63A) | alkaloid sensitivity of glycine-evoked currents (in words) (α1GlyR G160E) | alkaloid sensitivity of glycine-evoked currents (in words) (α1GlyR F63A; F63A, gelsemine 10 μM or 200 μM, 2 mM glycine) | alkaloid sensitivity of glycine-evoked currents (in words) (α1GlyR G160E; G160E, gelsemine 10 μM or 200 μM, 1 mM glycine) | IC50 (Spinal GlyRs) [µM] | modulation of currents (in words) (α3 GlyR) | IC50 [1] [µM] |
| --- | --- | --- | --- | --- | --- | --- | --- |
| C=C[C@@]12CN(C)[C@H]3C[C@]14C(=Nc1ccccc14)[C@H]1C[C@@H]2[C@@H]3CO1 [koumine] | not exert detectable effects | not exert detectable effects |  |  |  |  |  |
| C=C[C@]12CN(C)[C@@H]3[C@H]4CO[C@H](C[C@H]41)[C@]1(C(=O)Nc4ccccc41)[C@@H]32 [gelsemine] |  |  | insensitive | insensitive | ~42 | concentration-dependent inhibition | 55 to 75 |
